{"source": "patent US20040253259A1", "about": "“Biological compositions and methods for treatment of kidney cancer” (priority 2003, published 2004)", "type_in_all_cases": "in vivo", "key": {"[1]": {"test_system": "complex cancer cells of kidney", "test": "Syrian hamster model of human kidney cancer, tumor growth (Example 6)", "conditions": "tumor-bearing hamsters, 30 consecutive days of treatment, sacrificed on 31st day from tumor inoculation", "excerpt": "The following example illustrates the benefit of a biological composition of the invention in a Syrian hamster model of human kidney cancer. The growth of the tumor in the hamsters was studied. Detailed description of the use of Syrian hamster to study kidney cancer can be found in, e.g., Liehr et al., 1991, Carcinogenesis 12:385-9, which is incorporated herein by reference in its entirety.\n(§1) Complex cancer cells of kidney closely resembles the human kidney cancer pathology. See e.g., Modern Clinical Experimental Protocols, People's Republic of China Health Publishing House, 1997.\n(§2) The biological composition comprising 10^8 cells per ml of activated and conditioned yeast cells of the strain Saccharomyces carlsbergensis Hansen strain AS2.189 was prepared by the methods described in Section 5.1 and subsections therein.\nThe animals used to generate the kidney cancer cells for the experiments were Syrian hamsters (obtainable from the Institute of Laboratory Animal Sciences, Chinese Academy of Medical Sciences, Beijing, China), an equal number of male and female, 5 to 6 months old, having an average body weight of 150 to 180 gram. […]\nThe hamsters received the biological compositions, untreated yeast cells, FUDR or saline on the same day as the tumor cells were transplanted. […] The weight of the hamsters and the weight of the tumor were determined by standard techniques."}, "[2]": {"test_system": "complex cancer cells of kidney", "test": "Syrian hamster model of human kidney cancer, survival time over 6 months (Example 7)", "conditions": "for Number of live animals remaining in the groups after 30 days of treatment: 30 per group", "method": "The following example illustrates the benefit of a biological composition of the invention in a Syrian hamster model of human kidney cancer. The survival time of hamsters after tumor injection and treatment was studied.\nas §2\nThe animals were prepared in a similar manner as described in Section 6.1.\nThe hamsters injected with tumor cells were immediately divided into 4 experimental groups of ten hamsters per group and one control group. The four experimental groups were triplicated (i.e., using a total of 120 hamsters in the experimental groups). In group 2AY, the hamsters received 0.5 ml of the biological composition once per day. In group 2NY, the hamsters received 0.5 ml of the untreated yeast cells once per day. In group 2FUDR, the hamsters were injected subcutaneously with 0.6 mg of fluoruridine (FUDR) per kg body weight per day. In group 2CK1, the hamsters received 0.5 ml of physiological saline once per day.\nThe hamsters received the biological compositions, untreated yeast cells, FUDR or saline on the same day as the tumor cells were transplanted. The hamsters in group 2CK2 also started receiving saline on the same day as the other four groups. The biological compositions, untreated yeast cells and saline were administered orally by a feeding tube and the FUDR by subcutaneous injection for 30 consecutive days. The hamsters were observed over 6 months from the day of tumor inoculation and survival was recorded. The weight of the hamsters and the weight of the tumor were determined by standard techniques."}, "[3]": {"test_system": "complex cancer cells of kidney", "test": "Wistar rat model of human kidney cancer, tumor growth (Example 8)", "conditions": "tumor-bearing rats, 30 consecutive days of treatment, sacrificed on 31st day from tumor inoculation", "excerpt": "(§3) The following example illustrates the benefit of a biological composition of the invention in a Wistar rat model of human kidney cancer. The growth of the tumor in the rats was studied.\nas §1, §2\nThe animals used to generate the kidney cancer cells for the experiments were Wistar rats (obtainable from the Chinese Academy of Military Medical Sciences, Beijing, China) having an average body weight of about 180 to 200 gram. The complex cancer cells of kidney (obtainable from the Shanghai Medical University, Shanghai, China) were generated from a Wistar rat with kidney cancer that was induced by subcutaneous injection of bismaleimidohexane (BHM). […]\nThe rats received the biological compositions, untreated yeast cells, VCR or saline on the same day as the tumor cells were transplanted. […] The weight of the rats and the weight of the tumor were determined by standard techniques."}, "[4]": {"test_system": "complex cancer cells of kidney", "test": "Wistar rat model of human kidney cancer, survival over 6 months (Example 9)", "conditions": "for Number of live animals remaining in the groups after 30 days of treatment: 30 per group", "method": "as §3, §2\nThe animals were prepared in a similar manner as described in Section 8.1.\nThe rats injected with tumor cells were kept for 5 days and then were divided into 4 experimental groups of ten rats per group and one control group. The four experimental groups were triplicated (i.e., using a total of 120 rats in the experimental groups). In group 2AY, the rats received 0.8 ml of the biological composition once per day. In group 2NY, the rats received 0.8 ml of the untreated yeast cells once per day. In group 2VCR, the rats were injected intravenously with 3 mg of […] (VCR) per kg body weight per day. In group 2CK1, the rats received 0.8 ml of physiological saline once per day.\nThe rats received the biological compositions, untreated yeast cells, VCR or saline on the same day as the tumor cells were transplanted. The rats in group 2CK2 also started receiving saline on the same day as the other four groups. The biological compositions, untreated yeast cells and saline were administered orally by a feeding tube and the VCR by intravenous injection for 30 consecutive days. The rats were observed over 6 months from the day of tumor inoculation and survival was recorded. The weight of the rats and the weight of the tumor were determined by standard techniques."}, "[5]": {"conditions": "surviving hamsters, observed over 6 months"}, "[6]": {"conditions": "surviving rats, observed over 6 months"}}, "data": [{"smiles": "O=c1[nH]c(=O)n([C@H]2C[C@H](O)[C@@H](CO)O2)cc1F", "note": "[FUDR, fluoruridine]", "values": [{"measurement": "mean weight of hamsters and standard deviation", "setting": "[1]", "result": "116.7 ± 4.9", "unit": "g"}, {"measurement": "mean weight of tumor nodules and standard deviation", "setting": "[1]", "result": "2.7 ± 1.2", "unit": "mg"}, {"measurement": "Number of live animals remaining in the groups after 30 days of treatment", "setting": "[2]; hamsters, 0 month after cessation of treatment", "result": 30}, {"measurement": "Number of live animals remaining in the groups after 30 days of treatment", "setting": "[2]; hamsters, 1 month after cessation of treatment", "result": 27}, {"measurement": "Number of live animals remaining in the groups after 30 days of treatment", "setting": "[2]; hamsters, 2 months after cessation of treatment", "result": 11}, {"measurement": "Number of live animals remaining in the groups after 30 days of treatment", "setting": "[2]; hamsters, 3 months after cessation of treatment", "result": 5}, {"measurement": "Number of live animals remaining in the groups after 30 days of treatment", "setting": "[2]; hamsters, 4 months after cessation of treatment", "result": 0}, {"measurement": "Number of live animals remaining in the groups after 30 days of treatment", "setting": "[2]; hamsters, 5 months after cessation of treatment", "result": 0}, {"measurement": "Number of live animals remaining in the groups after 30 days of treatment", "setting": "[2]; hamsters, 6 months after cessation of treatment", "result": 0}, {"measurement": "survival outcome during the experiment", "setting": "[2]; hamsters, observed over 6 months", "result": "all died"}, {"measurement": "mean weight of hamsters and standard deviation", "setting": "[2]; [5]", "result": "all animals dead"}, {"measurement": "mean weight of tumor nodules and standard deviation", "setting": "[2]; [5]", "result": "all animals dead"}]}, {"smiles": "CC[C@]1(O)C[C@@H]2CN(CCc3c([nH]c4ccccc34)[C@@](C(=O)OC)(c3cc4c(cc3OC)N(C)[C@H]3[C@@](O)(C(=O)OC)[C@H](OC(C)=O)[C@]5(CC)C=CCN6CC[C@]43[C@@H]65)C2)C1", "note": "[VCR, vinblastine]", "values": [{"measurement": "mean weight of rats and standard deviation", "setting": "[3]", "result": "189.6 ± 2.5", "unit": "g"}, {"measurement": "mean weight of tumor nodules and standard deviation", "setting": "[3]", "result": "3.7 ± 1.9", "unit": "g"}, {"measurement": "Number of live animals remaining in the groups after 30 days of treatment", "setting": "[4]; rats, 0 month after cessation of treatment", "result": 30}, {"measurement": "Number of live animals remaining in the groups after 30 days of treatment", "setting": "[4]; rats, 1 month after cessation of treatment", "result": 30}, {"measurement": "Number of live animals remaining in the groups after 30 days of treatment", "setting": "[4]; rats, 2 months after cessation of treatment", "result": 30}, {"measurement": "Number of live animals remaining in the groups after 30 days of treatment", "setting": "[4]; rats, 3 months after cessation of treatment", "result": 22}, {"measurement": "Number of live animals remaining in the groups after 30 days of treatment", "setting": "[4]; rats, 4 months after cessation of treatment", "result": 13}, {"measurement": "Number of live animals remaining in the groups after 30 days of treatment", "setting": "[4]; rats, 5 months after cessation of treatment", "result": 0}, {"measurement": "Number of live animals remaining in the groups after 30 days of treatment", "setting": "[4]; rats, 6 months after cessation of treatment", "result": 0}, {"measurement": "survival outcome during the experiment", "setting": "[4]; rats, observed over 6 months", "result": "all died"}, {"measurement": "mean weight of rats and standard deviation", "setting": "[4]; [6]", "result": "all animals dead"}, {"measurement": "mean weight of tumor nodules and standard deviation", "setting": "[4]; [6]", "result": "all animals dead"}]}]}
